Experiments:
[1] = tested on: human respiratory syncytial virus (rgRSV30); assay: RSV plaque assay after 30 minutes exposure to 160 ppm gNO; format: cell-based; settings: single exposure of 30 minutes to 160 ppm gNO; for reduction of virus viability (factor): vs ambient air
Description: The efficacy of treating viral infection by respiratory syncytial virus by the methods presented herein was tested by exposure for 30 minutes of human respiratory syncytial virus (rgRSV30) to a gas mixture containing 160 ppm nitric oxide, using standard plaque assay as described hereinabove.
FIGS. 3A-D present the data obtained in the experiment using tissue culture samples harboring human rgRSV30, coupled to a green fluorescent protein, wherein the control experiment the samples were exposed to a ambient air (data not shown), and the tested samples having a starting viral level of 2000 PFU (FIG. 3A), 1000 PFU (FIG. 3B) and 500 PFU (FIG. 3C), were exposed to 160 ppm gNO for 30 minutes, whereas FIG. 3D presents a comparative bar plot comparing the control to test results.

Serracia sp. = settings: 200 ppm gNO, saline suspension; cited from earlier work

With [N]=O [gNO, nitric oxide] the viral viability ([1]; starting 500 PFU) was “substantially nullified”, the “reduction of virus viability (factor)” value ([1]; starting 1000 PFU) was about 10 and the “reduction of virus viability (factor)” value ([1]; starting 2000 PFU) was about 10. The “LD100” value (Serracia sp.) was 6 h, the “Latent Period” value (Serracia sp.) was 4 h and the “−2.5 Log10 (hours)” value (Serracia sp.) was 4.9 hours.
